These results are taken from PubChem BioAssay (NCI).

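48-hour exposure; five concentrations; linearly interpolated endpoints. GI50: concentration for 50% inhibition of growth. TGI marks complete inhibition of growth.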

Test systems include OVCAR-3 ovarian; HOP-62 NSCLC; SNB-75 CNS; MDA-MB-435; SNB-19 CNS; HOP-92 NSCLC; MOLT-4 leukemia; SF-295 CNS; LOX IMVI melanoma; U251 CNS.
Common to all, as to experiment: NCI tumour cell line growth inhibition, 48 h

Consider `CSc1nc(Nc2cccc(NC(=O)CCl)c2)c(C#N)c(-c2cccc([N+](=O)[O-])c2)n1`, for which the GI50 in the assay on OVCAR-3 ovarian was 1.77 µM; in the assay with HOP-62 NSCLC, 2.55 µM; in the assay with SNB-75 CNS, 0.682 µM; in the assay on MDA-MB-435, 2.15 µM; in the assay on SNB-19 CNS, 2.06 µM; in the assay with HOP-92 NSCLC, 1.92 µM. In addition, the GI50 in the assay with MOLT-4 leukemia is 1.32 µM; in the assay with SF-295 CNS, 9.83 µM; with LOX IMVI melanoma, 0.0373 µM; with U251 CNS, 1.6 µM. The TGI was 3.24 µM in the assay on OVCAR-3 ovarian; 11.4 µM with HOP-62 NSCLC; 4.8 µM with SNB-75 CNS; 5.16 µM in the assay with MDA-MB-435; 4.78 µM in the assay with SNB-19 CNS; 7.07 µM with HOP-92 NSCLC. Besides, the TGI in the assay with MOLT-4 leukemia worked out at 6.37 µM; with SF-295 CNS it was 36.4 µM; with LOX IMVI melanoma, 0.152 µM; in the assay with U251 CNS, 3.13 µM.

In the case of `O=c1c(-c2ccc3c(c2)OCO3)coc2c3c(ccc12)OCO3`, the TGI is > 100 µM with OVCAR-3 ovarian; 38.2 µM in the assay with HOP-62 NSCLC; 49.7 µM with SNB-75 CNS; > 100 µM with MDA-MB-435; 44.9 µM in the assay with SNB-19 CNS; 38.5 µM in the assay with HOP-92 NSCLC. The TGI was > 100 µM in the assay on MOLT-4 leukemia, 37.1 µM with SF-295 CNS, > 100 µM in the assay with LOX IMVI melanoma and > 100 µM in the assay on U251 CNS.

On to `O=C(Nc1sc2c(c1C(=O)O)CCCC2)c1ccco1`, for which the GI50 with OVCAR-3 ovarian was > 50 µM; with HOP-62 NSCLC, > 50 µM; in the assay with SNB-75 CNS, > 50 µM; with MDA-MB-435, > 50 µM; in the assay on SNB-19 CNS it was 29.5 µM; in the assay with HOP-92 NSCLC, > 50 µM. The GI50 in the assay on MOLT-4 leukemia was > 50 µM; with SF-295 CNS, 26.3 µM; with LOX IMVI melanoma, 22.8 µM; in the assay on U251 CNS it was 16.4 µM. Besides, the TGI in the assay with OVCAR-3 ovarian, with HOP-62 NSCLC, in the assay on SNB-75 CNS, with MDA-MB-435, in the assay on SNB-19 CNS and in the assay on HOP-92 NSCLC was > 50 µM each time. Besides, the TGI in the assay with MOLT-4 leukemia, in the assay with SF-295 CNS, with LOX IMVI melanoma and in the assay with U251 CNS was > 50 µM each time.

As to `CC(C)Cc1cnc(CC(C)C)c(=O)[nH]1`, the TGI in the assay on OVCAR-3 ovarian, in the assay with HOP-62 NSCLC, with SNB-75 CNS, in the assay with MDA-MB-435, in the assay on SNB-19 CNS and in the assay with HOP-92 NSCLC was > 100 µM throughout. Also, the TGI in the assay on MOLT-4 leukemia, with SF-295 CNS, in the assay on LOX IMVI melanoma and in the assay on U251 CNS was > 100 µM each time.

In the case of `CCOc1c(Br)cc(Br)cc1C=C(C#N)C#N`, the TGI with OVCAR-3 ovarian, in the assay on HOP-62 NSCLC, in the assay on SNB-75 CNS, in the assay with MDA-MB-435, with SNB-19 CNS and in the assay with HOP-92 NSCLC was > 10 µM in each case. Further, the TGI with MOLT-4 leukemia is > 10 µM; in the assay with SF-295 CNS, > 10 µM; with LOX IMVI melanoma, 7.36 µM; in the assay on U251 CNS, > 10 µM.

Turning to `COc1cccc2c1C(=O)c1c(O)c3c(c(O)c1C2=O)C[C@@](O)(C(C)=O)CC3OC1CC(OC2CC(N)C(O)C(C)O2)C(O)C(C)O1` (stereo not given in full), the TGI in the assay with OVCAR-3 ovarian is > 100 µM; in the assay with HOP-62 NSCLC, > 100 µM; in the assay on SNB-75 CNS, 85.7 µM; in the assay with MDA-MB-435, > 100 µM; in the assay on SNB-19 CNS it was > 85.1 µM; in the assay with HOP-92 NSCLC it was > 100 µM. In addition, the TGI is 7.24 µM in the assay on MOLT-4 leukemia, > 100 µM in the assay on SF-295 CNS, > 100 µM with LOX IMVI melanoma and > 87.6 µM with U251 CNS.

With `CCCC(=O)O[C@]1(C)CC[C@@H]2[C@H]3[C@@H]1[C@@H]1C[C@@](C)(O)[C@H](OC)CC[C@](C)(OC(=O)[C@@H]2C)[C@H]3O1`, the GI50 in the assay on OVCAR-3 ovarian is 16.9 µM; in the assay with HOP-62 NSCLC, 82.7 µM; in the assay with SNB-75 CNS it was 16.3 µM; in the assay on MDA-MB-435, 34.3 µM; in the assay with SNB-19 CNS, 32.1 µM; with HOP-92 NSCLC it was 17.6 µM. Moreover, the GI50 in the assay on MOLT-4 leukemia was 23.5 µM; in the assay on SF-295 CNS it was 30 µM; in the assay with LOX IMVI melanoma it was 66.9 µM; in the assay on U251 CNS, 56.9 µM. Also, the TGI is 40 µM in the assay on OVCAR-3 ovarian; > 100 µM in the assay with HOP-62 NSCLC; 39.2 µM in the assay on SNB-75 CNS; > 100 µM in the assay on MDA-MB-435; > 100 µM in the assay on SNB-19 CNS; 31.4 µM in the assay with HOP-92 NSCLC. Also, the TGI with MOLT-4 leukemia was 52 µM; in the assay on SF-295 CNS, > 100 µM; with LOX IMVI melanoma, > 100 µM; in the assay on U251 CNS it was > 100 µM.

On to `Clc1ccccc1C(Nc1cnccn1)Nc1cnccn1`, for which the TGI with OVCAR-3 ovarian, in the assay on HOP-62 NSCLC, in the assay with SNB-75 CNS, in the assay with MDA-MB-435, with SNB-19 CNS and in the assay with HOP-92 NSCLC was > 100 µM in each case. The TGI in the assay on MOLT-4 leukemia, in the assay with SF-295 CNS, in the assay with LOX IMVI melanoma and in the assay on U251 CNS was > 100 µM in each case.

For `COc1ccc(-c2ccc(OC)c(OC)c2OC)cc1`, the GI50 in the assay on OVCAR-3 ovarian is 1.41 µM; in the assay with HOP-62 NSCLC it was 2.87 µM; in the assay with SNB-75 CNS, 3.34 µM; in the assay with MDA-MB-435, 0.239 µM; with SNB-19 CNS it was 4.83 µM; with HOP-92 NSCLC it was 1.32 µM. Also, the GI50 with MOLT-4 leukemia is 2.39 µM; in the assay on SF-295 CNS it was 1.7 µM; with LOX IMVI melanoma, 2.82 µM; in the assay with U251 CNS, 2.01 µM. Besides, the TGI in the assay on OVCAR-3 ovarian is 4.49 µM; in the assay with HOP-62 NSCLC, > 100 µM; with SNB-75 CNS, > 100 µM; with MDA-MB-435, 0.833 µM; in the assay with SNB-19 CNS, > 100 µM; in the assay on HOP-92 NSCLC, 63 µM. The TGI in the assay on MOLT-4 leukemia, in the assay with SF-295 CNS, with LOX IMVI melanoma and with U251 CNS was > 100 µM in each case.

For `Cc1ccc(/C(=N/Nc2ccc([N+](=O)[O-])cc2)Sc2cc(Cl)c(C)cc2S(N)(=O)=O)cc1`, the GI50 was 1.22 µM with OVCAR-3 ovarian; 2.35 µM in the assay on HOP-62 NSCLC; 2.06 µM with SNB-75 CNS; 1.73 µM with MDA-MB-435; 2.5 µM in the assay on SNB-19 CNS; 1.45 µM in the assay with HOP-92 NSCLC. The GI50 in the assay with MOLT-4 leukemia is 3.35 µM; in the assay with SF-295 CNS, 1.75 µM; in the assay on LOX IMVI melanoma, 1.49 µM; in the assay with U251 CNS it was 4.34 µM. In addition, the TGI is 2.61 µM in the assay with OVCAR-3 ovarian; 5.34 µM with HOP-62 NSCLC; 3.94 µM with SNB-75 CNS; 3.89 µM in the assay on MDA-MB-435; > 20.5 µM with SNB-19 CNS; 3.77 µM in the assay on HOP-92 NSCLC. For the same molecule, the TGI in the assay on MOLT-4 leukemia came out at 12.3 µM; in the assay on SF-295 CNS, 3.39 µM; in the assay with LOX IMVI melanoma, 3.45 µM; in the assay with U251 CNS it was 16.7 µM.

With `O=C(Nc1n[nH]c2cc(-c3cc(F)ccc3F)ccc12)C1CC1`, the GI50 in the assay with OVCAR-3 ovarian was 9.3 µM; with HOP-62 NSCLC, 15.2 µM; in the assay with SNB-75 CNS it was > 15.8 µM; in the assay on MDA-MB-435, 4.56 µM; in the assay with SNB-19 CNS, > 25 µM; in the assay with HOP-92 NSCLC it was > 25 µM. In addition, the GI50 was 14.3 µM in the assay on MOLT-4 leukemia, 16.9 µM in the assay with SF-295 CNS, 14.4 µM with LOX IMVI melanoma and 15.3 µM in the assay with U251 CNS. Further, the TGI in the assay with OVCAR-3 ovarian is 24.2 µM; with HOP-62 NSCLC, > 25 µM; in the assay on SNB-75 CNS, > 25 µM; in the assay on MDA-MB-435, 21.5 µM; in the assay on SNB-19 CNS, > 25 µM; with HOP-92 NSCLC it was > 25 µM. Further, the TGI in the assay on MOLT-4 leukemia, in the assay with SF-295 CNS, in the assay on LOX IMVI melanoma and in the assay on U251 CNS was > 25 µM in each case.
